A value given as a limit tells only on which side of the number the result lay.

Usually melting point stands for the temperature, or range, at which the solid turns liquid.

In turn, `COc1c(C=NO)ccc2c1OCO2` yielded a melting point of 118 to 119 °C.

With `CCCCCCCCCCCCOc1ccc2c(c1)C(CCNC(=O)CCC)CC2` (stereo not given), the melting point is 68 to 69 °C.

The compound `CC(C)(C)OC(=O)N1CCC(c2cn(S(C)(=O)=O)c3ccccc23)CC1` registered a melting point of 136 to 137 °C.

`COC(=O)C(Cc1ccccc1)NC(=O)C(N)(CC(=O)O)NC(=O)C(C)C` (stereo not given) yielded a melting point of 168 to 170 °C.

The compound `CN(C)CCCOc1ccc(-c2nnc(CSCCOc3ccccc3)o2)cn1` gave a melting point of 69 to 70 °C.

For `O=c1c2cc(Cl)ccc2ncn1CCCN1CCC(c2c[nH]c3ccccc23)CC1`, the melting point came out at 138 °C.

In turn, `CC(C)(C)OC(=O)NCC1=C(CC(=O)O)CCCC1` registered a melting point of 118 to 119 °C.

`COc1ccc(C=C(C#N)C=O)cc1OC` showed a melting point of 157 to 158 °C.

For the compound `COc1ccc(NC(=O)c2ccc(F)c(F)c2)cc1N`, the melting point was 148 to 151 °C.

`CC1(C)OC(=O)Nc2ccc(-c3cc(F)cc(-c4ccsc4)c3)cc21` displayed a melting point of 200 to 203 °C.

With `COC(=O)c1ccccc1C(=O)NC(C)(C)C#N`, the melting point lay in the range of 100 to 101 °C.

`Oc1cccc(-c2nc(Nc3ccc(Cl)cc3)c3ccccc3n2)n1` had a melting point of over 350 °C.

For the compound `CCSC(c1ccc(Cl)cc1Cl)C(C(=O)C(C)(C)CF)n1cncn1` (stereo not given), the melting point came to 130 °C.

The compound `CC(=O)Nc1c(C(=O)c2cccc(Cl)c2)[nH]c2cc(Cl)ccc12` registered a melting point of 152 to 154 °C.

`CCOCc1cc(I)c(=O)[nH]c1C` registered a melting point of 220 to 222 °C.

The compound `Cc1cc(-n2ccnc2)c2cccc(OCc3c(Cl)ccc(S(=O)(=O)N4CCC[C@H]4C(=O)NCc4ccccc4)c3Cl)c2n1` had a melting point of 116 °C.

For the compound `C[Si](C)(C)c1ccc(-c2ccc(Br)cc2F)c(F)c1F`, the melting point worked out at 78 °C.

Compound `NS(=O)(=O)c1ccc(-c2cn(-c3nc(-c4ccc(Cl)c(Cl)c4)cc(C(F)(F)F)n3)cn2)cc1` registered a melting point of 334 °C.

Compound `CN(C)c1ccc(S(=O)(=O)n2c(CCCC(=O)O)cc3nc(Cl)ccc32)c(Cl)c1` registered a melting point of 208 °C.

In turn, `Nc1cc(C(=O)O)c(F)c(F)c1F` came in with a melting point of 164 to 166 °C.

In the case of `O=C1CC(SSSSC2CC(=O)NC2=O)C(=O)N1` (stereo not given), the melting point fell in the range of 108 to 114 °C.

`COc1ccc(C(=O)Nc2ccccc2)cc1NC(=S)Nc1ccc(C(F)(F)F)cc1`: the melting point lay in the range of 194 to 196 °C.

Consider `COC(=O)c1ccccc1NC(=O)Cl`, for which the melting point is 80 to 82 °C.

Regarding `COc1cc2sc(CC(C)(Oc3ccc(C(C)C)cc3)C(=O)O)cc2c(Cl)c1OC` (stereo not given), the melting point lay in the range of 105 to 108 °C.

With `O=c1oc(-c2ccccc2)cc(O)c1C(SC1CCCC1)C1CCCC1` (stereo not given), the melting point was in the range of 139 to 142 °C.

`COc1ccc(N2CCN(c3c(C)c(C)c4c(c3C)C(N3CCc5ccccc5C3)C(C)(C)O4)CC2)cc1` (stereo not given) displayed a melting point of 144 to 145 °C.

As for `O=C(c1ccc(Cl)cc1)c1ccc[nH]1`, the melting point lay in the range of 106 to 109 °C.

Turning to `CC(=O)OCc1ccc2sc(S(N)(=O)=O)cc2c1`, the melting point was in the range of 113 to 115 °C.

On to `Cc1[nH]c(=O)c2c(ccc3nc(Nc4c(Cl)cccc4Cl)n(C)c32)c1CCO`, for which the melting point is over 300 °C.

`CCCc1c(OCCCOc2ccc3c(c2CCC)OC(C)(CCC(=O)O)CC3=O)ccc(C(C)=O)c1O` (stereo not given): the melting point was 80 to 83 °C.

On to `Cc1ccc(S(=O)(=O)Nc2ccc([N+](=O)[O-])cc2C#N)cc1`, for which the melting point lay within 166 to 167 °C.

The compound `O=Cc1ccc(-c2cc3c4c(c2)cc(F)n4C(=O)CNC3)cc1` came in with a melting point of 212 to 214 °C.

For the compound `Cc1ccc(Cl)cc1N1CN(C)CNC1=S`, the melting point was 171 to 173 °C.

`O=C1c2cccc3c4c(cc(c23)C(=O)N1O)COCO4` registered a melting point of 314 to 315 °C.

Regarding `C[C@@H](Cn1ncc2ccc3c(c21)C[C@@H](OCC(N)=O)CO3)N=[N+]=[N-]`, the melting point is 94 to 97 °C.

For the compound `O=[N+]([O-])c1ccc2oc(CBr)cc2c1`, the melting point was 96 to 98 °C.

`Cc1cc2nc3ccc(C#N)cn3c(=O)c2s1` had a melting point of 258 to 259 °C.

For the compound `COc1ccc(-c2csc(C(=O)O)n2)cc1OC1CC2CCC1C2` (stereo not given), the melting point was in the range of 112 to 113 °C.

Compound `Cc1cc(Cl)nn2cnnc12` gave a melting point of 134 to 136 °C.

As to `Cc1ccc(C(=O)CCC(=O)c2ccccc2)s1`, the melting point was determined as 122 °C.

On to `CCCC[C@H](NC(=O)[C@H](CC(C)C)NC(=O)c1ccccc1OC)C(=O)CSCc1ccco1`, for which the melting point is 77 to 78 °C.

Compound `CCc1nn2c(-c3ccc(Cl)cc3Cl)cccc2c1N(CC)CC` came in with a melting point of 118 to 121 °C.

Compound `CC(C)C(=O)C(=CC(=O)c1ccc(Cl)cc1)n1cncn1` gave a melting point of 128 to 130 °C.

`CN(C)C=NC(=N[N+](=O)[O-])NC1CC1` registered a melting point of 120 to 122 °C.

Take `CC(=O)Nc1ccc(C(=O)O)c(O)c1`: the melting point lay within 221 to 223 °C.

Consider `Cc1cc(-c2cc(C(=O)O)c(=O)n(CC=Cc3ccccc3)n2)ccc1F`, for which the melting point was in the range of 143 to 144 °C.

Compound `CC(C)N1CC=C(c2c[nH]c3ccccc23)CC1` came in with a melting point of 178 °C.

`CCC(=C(c1ccc(O)cc1)c1ccc(OCCN(C)C)cc1)c1ccccc1`: the melting point was in the range of 114 to 117 °C.

`N=C(N)c1ccc(-c2ccc(-c3ccc(C(=N)N)cn3)o2)cc1`: the melting point turned out to be 232 °C.

The compound `CCCCCCCCOC(=O)C(=C1SCCCS1)c1cccc(C(F)(F)F)c1` returned a melting point of 49 °C.

`CCOC(=O)c1ccc(C(=O)Sc2cccn3c(=O)c(C(=O)OCC)cnc23)cc1` showed a melting point of 146 to 148 °C.

`CCOC(=O)CCCCC(NS(=O)(=O)c1ccccc1)c1ccc2ccccc2c1` (stereo not given) returned a melting point of 81 to 84 °C.

`COC(=O)c1ccc(-c2nc3ccc(C(=O)O)cc3[nH]2)cc1` yielded a melting point of 308 to 309 °C.

In the case of `CCCCC(O)(COc1ccc(C(=O)O)c(O)c1)c1ccc2c(c1)C(C)(C)CCC2(C)C` (stereo not given), the melting point lay in the range of 142 to 143 °C.

The compound `O=c1c2c[nH]c3ccccc3c-2nn1-c1cnc2ccccc2c1` registered a melting point of over 350 °C.

In the case of `CCCc1cc(C(=O)O)ccc1OCCCCCCc1cccc(O)c1O`, the melting point fell in the range of 123 to 124 °C.

With `COc1cc(OC)cc(-c2ncoc2-c2ccc(N)cc2)c1`, the melting point is 142 to 146 °C.

In turn, `Cc1ccc(CC2(O)CCNCC2)cc1` yielded a melting point of 118 to 121 °C.

`C=CCN1CC(OC(=O)c2ccccc2)CC1=O` (stereo not given) returned a melting point of 56 to 67 °C.

With `O=C1C(=Cn2ccnc2)C(c2ccc(Cl)cc2)c2ccc(Cl)cc21` (stereo not given), the melting point was in the range of 204 to 205 °C.

Compound `O=[N+]([O-])c1ccc(Cn2c(CO)nc3ccccc32)cc1` showed a melting point of 162 to 165 °C.

Compound `Nc1nc(N)c(N)c(OCc2ccccc2)n1` came in with a melting point of 130 to 135 °C.

For `Cc1ccc(CCc2ccccc2Br)c(NC=O)c1`, the melting point was 167 to 169 °C.

`CCOC1CC(n2cc(CC)c(=O)[nH]c2=O)OC1CO` (stereo not given): the melting point came to 157 °C.

In turn, `CCOC(=O)N1CCCC(Nc2nc3ccccc3[nH]2)CC1` (stereo not given) registered a melting point of 175 °C.

`O=C(Nc1cccc(C(=O)O)c1)OCc1ccccc1` showed a melting point of 218 to 219 °C.

In the case of `CCN(C(=O)c1ccccc1-c1ccccc1)C(C)(C)c1ccccc1`, the melting point is 121 to 122 °C.

In turn, `Cc1cc(CCCCCOc2c(C)cc(-c3cn(C)nn3)cc2C)on1` had a melting point of 117 to 118 °C.

`Cc1c(C)n(CC2CC2)c2c(OCc3ccc(F)cc3)nncc12`: the melting point fell in the range of 137 to 138 °C.

`COc1cc(C)nc(NC(=O)NS(=O)(=O)c2cccc3nc(C)sc23)n1` showed a melting point of 178 to 180 °C.

Consider `O=C1C2=C(C(=O)N1CCO)c1ccccc1CC2`, for which the melting point fell in the range of 120 to 121 °C.

As to `O=C(Nc1ccc(/C=C/CO)c(F)c1)OCc1ccccc1`, the melting point is 105 to 106 °C.

On to `CCC(=O)C(CCCCCl)NC(=O)c1ccc(C)cc1` (stereo not given), for which the melting point lay within 85 to 86 °C.

As for `COc1cc(C#N)ccc1C(Br)Br`, the melting point lay within 78 to 79 °C.

Regarding `N#Cc1n[nH]c(N)c1SC(F)(F)F`, the melting point was determined as 187 °C.

On to `Cn1c(Cl)cccc1=O`, for which the melting point was found to be 108 °C.

Compound `O=C1CC(c2ccc(OCc3ccccc3)cc2)=Nc2ccc(N3CCCC3)cc21` showed a melting point of 330 to 332 °C.

Regarding `Cc1cc(C(=O)O)ccc1C1=CCC2CC1C2(C)C` (stereo not given), the melting point is 139 to 140 °C.

`Nn1ccc(C(=O)c2ccccc2)c1` returned a melting point of 82 to 83 °C.

`NC(=O)n1ccc(-c2ccc(Oc3ccc(F)cc3)cc2)n1` had a melting point of 141 to 143 °C.

`C#CCOc1cc(C(=O)O)cc(N)c1-c1ccccc1` displayed a melting point of 172 to 173 °C.

`O=C(CNc1ccccc1)N1CCC(Cc2ccccc2)CC1` yielded a melting point of 107 to 109 °C.

The compound `O=C(O)c1cc(OCC(=O)c2ccccc2)cc(C(F)(F)F)c1` gave a melting point of 180 to 182 °C.

Compound `O=c1c2cc(F)ccc2nc(CNCc2ccccc2F)n1-c1ccccc1Cl` showed a melting point of 140 °C.

`CC(C)(C)OC(=O)N1CCC(O)(CS(N)(=O)=O)CC1` yielded a melting point of 176 to 180 °C.

On to `Cc1cc(C2=NOC(c3cc(Cl)cc(Cl)c3)(C(F)(F)F)C2)ccc1C(=O)N(C)C1CCCS1` (stereo not given), for which the melting point lay in the range of 146 to 151 °C.

`COc1ccc(C(=O)Nc2ccccc2)cc1NS(=O)(=O)c1cn(C)cn1` showed a melting point of 250 to 252 °C.

For `Cc1ccccc1NC1=CC(=O)NCC1`, the melting point lay within 155 to 158 °C.

For the compound `O=C(O)Cc1cc(F)ccc1OCCc1ccccc1`, the melting point is 99 to 101 °C.

`C=CCCc1ccc(C#N)c(O)n1` registered a melting point of 122 to 125 °C.

For `O=[N+]([O-])c1cccc2c(OS(=O)(=O)C(F)(F)F)ccnc12`, the melting point is 108 °C.

In turn, `COCOc1cccc(NC(=O)OC(C)(C)C)c1I` gave a melting point of 82 to 84 °C.

In turn, `CC(C)(C)ON=Cc1ncn2c1[C@@H]1CCCN1C(=O)c1c(Cl)cccc1-2` came in with a melting point of 215 to 216 °C.

With `CC(=NNC(=S)N1CCCCCC1)c1ccc2ccccc2n1`, the melting point is 129 to 131 °C.

Consider `Ic1ccc(N(c2ccccc2)c2ccccc2)cc1`, for which the melting point lay within 102 to 104 °C.

The record behind these values is a melting point compilation (Tetko et al.; mined from patent text by program, amines drawn as free bases though some values may be those of a salt).
